Among the data in patent US8653263B2 (Janssen Pharmaceutica, priority 2009, dated 2014) are Ki values, retold here.

Structures are written as SMILES.

human orexin-2 receptor, sequence (O43614 whole entry): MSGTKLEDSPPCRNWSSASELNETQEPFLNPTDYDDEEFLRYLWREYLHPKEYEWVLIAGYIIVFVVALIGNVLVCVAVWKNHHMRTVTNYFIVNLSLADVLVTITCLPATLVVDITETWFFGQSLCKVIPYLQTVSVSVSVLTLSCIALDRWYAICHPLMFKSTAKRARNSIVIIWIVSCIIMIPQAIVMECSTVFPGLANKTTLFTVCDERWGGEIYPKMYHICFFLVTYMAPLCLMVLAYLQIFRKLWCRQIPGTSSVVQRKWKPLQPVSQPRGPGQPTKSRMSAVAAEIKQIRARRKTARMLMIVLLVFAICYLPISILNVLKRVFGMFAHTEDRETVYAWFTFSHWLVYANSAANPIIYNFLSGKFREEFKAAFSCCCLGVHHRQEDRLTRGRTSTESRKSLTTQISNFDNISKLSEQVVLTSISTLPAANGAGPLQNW

The test addresses human orexin-2 receptor (Homo sapiens (Human), UniProt O43614). Put plainly: Human orexin 2 receptor radioligand binding ([3H]-EMPA competition). The conditions noted are these: HEK293 cells stably expressing human orexin-2 receptor; [3H]-EMPA 5 nM final; apparent Ki=IC50/(1+C/Kd), Kd=2 nM; read-out: OR 2 Ki.
For `Cc1cc(C)nc(N2CC3CN(C(=O)c4cc(F)ccc4-c4ncccc4F)CC3C2)n1` (stereo not drawn) [Example 402, (5-(4,6-Dimethylpyrimidin-2-yl)hexahydropyrrolo[3,4-c]pyrrol-2(1H)-yl)(5-fluoro-2-(3-fluoropyridin-2-yl)phenyl)methanone], the Ki turned out to be 120 nM. The result for `Cc1cc(C)nc(N2CC3CN(C(=O)c4cc(F)ccc4-c4ccccn4)CC3C2)n1` (stereo not drawn) [Example 403, (5-(4,6-Dimethylpyrimidin-2-yl)hexahydropyrrolo[3,4-c]pyrrol-2(1H)-yl)(5-fluoro-2-(pyridin-2-yl)phenyl)methanone] reads 180 nM; that for `Cc1cc(C)nc(N2CC3CN(C(=O)c4cc(F)ccc4-c4ncco4)CC3C2)n1` (stereo not drawn) [Example 404, (5-(4,6-Dimethylpyrimidin-2-yl)hexahydropyrrolo[3,4-c]pyrrol-2(1H)-yl)(5-fluoro-2-(oxazol-2-yl)phenyl)methanone], 19 nM.
